Structures can show the parent of a compound that is named as a salt.
System: not given
Assay: not given
Details: not given

With `c1cncc(-c2ccc3c(-c4cccnc4)coc3c2)c1` [Example 7, 3-[6-(3-pyridyl)benzo[b]furan-3-yl]pyridine] the melting point was 140.5 to 141.5 °C.

Target: T1, steroid 17α-hydroxylase and/or steroid C17-20 lyase (Rattus norvegicus, UniProt P11715)
T1 construct: the testis of rats (SD, male) was homogenized and centrifuged to obtain microsome; from tissue; host or cells: rat (SD, male) testis microsomes
T1 sequence (P11715 1-507): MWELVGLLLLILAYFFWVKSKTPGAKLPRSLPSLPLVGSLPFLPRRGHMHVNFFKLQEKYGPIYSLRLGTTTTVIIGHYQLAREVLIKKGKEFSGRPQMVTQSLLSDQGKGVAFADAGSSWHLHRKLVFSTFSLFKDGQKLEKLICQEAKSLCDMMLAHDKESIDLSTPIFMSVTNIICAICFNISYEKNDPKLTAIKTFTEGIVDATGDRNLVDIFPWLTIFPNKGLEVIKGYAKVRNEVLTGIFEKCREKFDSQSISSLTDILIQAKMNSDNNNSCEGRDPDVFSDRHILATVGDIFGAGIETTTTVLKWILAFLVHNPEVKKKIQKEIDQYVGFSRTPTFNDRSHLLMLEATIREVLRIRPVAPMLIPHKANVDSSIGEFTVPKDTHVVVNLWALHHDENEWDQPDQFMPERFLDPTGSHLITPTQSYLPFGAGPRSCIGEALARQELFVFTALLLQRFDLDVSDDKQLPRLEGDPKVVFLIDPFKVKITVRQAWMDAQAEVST
Assay: Measurement of steroid 17α-hydroxylase and/or steroid C17-20 lyase inhibitory activity (rat testis microsome)
Type: biochemical
Details: test compound 300 nM, substrate 25 μM 17α-hydroxyprogesterone, NADPH 500 μM
Description: An experiment was carried out according to the method of T. Sergejew and R. W.
Hartmann (J. Enzyme Inhibition, 8, 113 (1994)). That is, the testis of rats (SD, male) was homogenized and centrifuged to obtain microsome. Each compound of the present invention prepared in Examples 1-13 was put into a micro tube (1.5 ml, Eppendorf Co.). After the addition of 100 μl of microsome protein solution, the concentration of which was adjusted to 0.1 mg/ml using 50 mM phosphate buffer solution (pH 7.4), 140 μl of 125 nmol NADPH solution, and 10 μl of 6.25 nmol 17α-hydroxyprogesterone, the mixture was incubated at 37° C. for 20 minutes. 50 μl of 1N hydrochloric acid and 1000 μl of ethyl acetate were sequentially added to the mixture. The mixture was shaken and centrifuged. The ethyl acetate layer was then washed with 250 μl of 50 mM phosphate buffer solution (pH 7.4) and 50 μl of IN hydrochloric acid, centrifuged, and concentrated. The concentrate was dissolved in 100 μl of acetonitrile. 10 μl of this solution was charged to high performance liquid chromatography. The amounts of the substrate and the formed product (androstenedione and testosterone) were measured to determine the enzyme activity. A sample without the test compound added was provided as a control. Steroid 17α-hydroxylase and/or steroid C17-20 lyase inhibitory activity (%) was calculated from the amounts of each substrate and product using the following equation (1). [formula]

First: Fc1ccc(-c2ccc3c(-c4cccnc4)coc3c2)cc1 [Example 3, 3-[6-(4-fluorophenyl)benzo[b]furan-3-yl] Pyridine]
Second: Fc1cccc(-c2ccc3c(-c4cccnc4)coc3c2)c1 [Example 4, 3-[6-(3-fluorophenyl)benzo[b]furan-3-yl] Pyridine]
The inhibition at 0.3 µM of the first is higher: 64% for the first, 45% for the second.

Compared with `Nc1cccc(-c2ccc3c(-c4cccnc4)coc3c2)c1` [Example 6, 3-[3-(3-pyridyl)benzo[b]furan-6-yl]phenylamine], `Oc1cccc(-c2ccc3c(-c4cccnc4)coc3c2)c1` [Example 11, 3-[3-(3-pyridyl)benzo[b]furan-6-yl]phenol] is lower in inhibition at 0.3 µM: 90% for the first, 81% for the second.

Going from `c1cncc(-c2ccc3c(-c4cccnc4)coc3c2)c1` [Example 7, 3-[6-(3-pyridyl)benzo[b]furan-3-yl]pyridine] to `c1ccc(-c2ccc3c(-c4cccnc4)coc3c2)cc1` [Example 9, 3-(6-phenylbenzo[b]furan-3-yl)pyridine], the inhibition at 0.3 µM falls from 75% to 45%.

Going from `Oc1ccc(-c2ccc3c(-c4cccnc4)coc3c2)cc1O` [Example 12, 4-[3-(3-pyridyl)benzo[b]furan-6-yl]-1,2-benzenediol hydrobromide] to `c1cncc(-c2coc3cc(-c4ccsc4)ccc23)c1` [Example 13, 3-[6-(3-thienyl)benzo[b]furan-3-yl]pyridine hydrochloride], the inhibition at 0.3 µM rises from 66% to 89%.

Reference: patent publication US6689798B2, “Benzofuran derivatives” (Daiichi Pharmaceutical Co., Ltd., priority 2000, dated 2004)
